Measured values reported in US11377679B2, “Multi-well-based cell culture test device for rapid antibiotic susceptibility testing” (priority 2016, dated 2022).
≈ marks a conversion by molar mass, not a printed value.

Legend:
Format in all cases: cell-based
P. aeruginosa [1] = assay: susceptibility testing using the cell culture test device (DRAST), strain from blood sample
From the text: (§1) Referring first to (a) of FIG. 4, a liquid medium containing a gelling agent is mixed with a biological agent to prepare a mixture solution as a first fluid. The liquid medium may include at least about 95% by weight of water and can be solidified due to the presence of the gelling agent. As the gelling agent, there may be exemplified agar, agarose, gelatin, alginate, collagen or fibrin. The use of agar or agarose is preferred. For example, agar may be used in an amount of 0.5 to 4% by weight in the liquid medium. The liquid medium usually requires no nutrients. In some examples, however, the liquid medium may include nutrients. The liquid medium may be a solution including a medium stimulating the division of particular cells.
(§2) Referring next to (b) of FIG. 4, the mixture solution is provided to a recess 421 formed at the bottom of a first sub-well. The mixture solution may be loaded in an amount corresponding to the volume of the recess of the first sub-well. The volume of the mixture solution loaded into the recess of the first sub-well is preferably from 10 μl to 200 μl, more preferably from 10 μl to 150 μl. If the volume of the mixture solution loaded into the first sub-well is less than the lower limit, the density of cells in the mixture solution is low, making it difficult to observe the cells. Meanwhile, if the volume of the mixture solution loaded into the first sub-well exceeds the upper limit, the mixture solution may overflow into a second sub-well beyond a barrier. […] The micropatterned groove also allows the mixture solution to be well fixed to the desired area. […] Referring to FIG. 5, a micropatterned groove 522 is formed in the well a sample to fix the sample to only the desired area.
(§3) A blood sample positive for bacterial infection is collected and diluted with a medium containing a gelling agent.
(§4) The mixture solution is solidified to form a solid thin film immobilized with the biological agent. When the temperature of the liquid medium drops, the medium is solidified, which restricts the mobility of the biological agent. This immobilization facilitates continuous observation of the motile biological agent.
(§5) As shown in (c) of FIG. 4, a second sub-well 430 including a bioactive agent in a solid form is provided with a solvent capable of dissolving the bioactive agent. When a bioactive agent is absent in the second sub-well 430, a solution containing a bioactive agent can be provided to the second sub-well 430. Herein, the bioactive agent may include a substance selected from antibiotics, anticancer agents, drugs such as immunosuppressants, nutrients, cellular secretions, signal transducers, viruses, cells, micro RNAs, proteins, antigens, antibodies, and DNA.

P. aeruginosa ATCC 27853 = assay: antibiotic susceptibility testing using the cell culture test device (DRAST), reference strain; settings: Pseudomonas aeruginosa, ATCC27853, observed until 6 h
From the text: as §1
(§6) Referring next to (b) of FIG. 4, the mixture solution is provided to a recess 421 formed at the bottom of a first sub-well. The mixture solution may be loaded in an amount corresponding to the volume of the recess of the first sub-well. The volume of the mixture solution loaded into the recess of the first sub-well is preferably from 10 μl to 200 μl, more preferably from 10 μl to 150 μl. If the volume of the mixture solution loaded into the first sub-well is less than the lower limit, the density of cells in the mixture solution is low, making it difficult to observe the cells. […]

P. aeruginosa [2] = assay: broth microdilution (BMD) susceptibility testing, strain from blood sample; settings: BMD testing method
Protocol: (§7) The tests were conducted on various antibiotics that are currently used in testing organizations. […] The concentrations shown in FIG. 12 are expressed in μg/mL.

E. faecalis ATCC 29212 = assay: antibiotic susceptibility testing using the cell culture test device (DRAST), reference strain; settings: Enterococcus faecalis, ATCC29212, observed until 6 h
From the text: as §1, §6

Enterobacter aerogenes [3] = assay: susceptibility testing using the cell culture test device (DRAST), strain from blood sample; settings: E. aerogenes from blood sample
From the text: as §1, §2, §3, §4, §5

Enterobacter aerogenes [4] = assay: broth microdilution (BMD) susceptibility testing, strain from blood sample; settings: E. aerogenes from blood sample; BMD testing method
Protocol: as §7

Compound | susceptibility category (P. aeruginosa [1]) | MIC (P. aeruginosa ATCC 27853) | susceptibility category (P. aeruginosa [2]) | MIC (E. faecalis ATCC 29212) | susceptibility category (Enterobacter aerogenes [3]) | susceptibility category (Enterobacter aerogenes [4])
C[C@H]1[C@H](NC(=O)/C(=N\OC(C)(C)C(=O)O)c2csc(N)n2)C(=O)N1S(=O)(=O)O [aztreonam] | susceptible | 8 µg/mL (≈ 18.4 µM) | I | – | – | –
CO/N=C(\C(=O)N[C@@H]1C(=O)N2C(C(=O)O)=C(COC(C)=O)CS[C@H]12)c1csc(N)n1 [cefotaxime] | susceptible | – | I | – | – | –
CN(C)[C@@H]1C(O)=C(C(N)=O)C(=O)[C@@]2(O)C(O)=C3C(=O)c4c(O)cccc4[C@@](C)(O)[C@H]3C[C@@H]12 [tetracycline] | – | – | – | 8 µg/mL (≈ 18 µM) | – | –
CC1(C)S[C@@H]2[C@H](NC(=O)[C@H](C(=O)O)c3ccsc3)C(=O)N2[C@H]1C(=O)O [ticarcillin] | susceptible | – | I | – | – | –
colistin | I | – | susceptible | – | I | S
